PMC10766610, “DCAF1-based PROTACs with activity against clinically validated targets overcoming intrinsic- and acquired-degrader resistance” (Nature Communications, 2024)
Read-outs that look alike come from different tables or passages of the source.

Experiments:
[1] = biological target: T1, DCAF1(WDR) (Homo sapiens, UniProt Q9Y4B6, E1398S); assay: DCAF1 TR-FRET competition assay, standard binary format; type: binding; conditions: for IC50: binary
T1 construct: His6 (C); made in house; host or cells: Sf9 insect cells (baculovirus), co-expressed with BirA
T1 sequence (Q9Y4B6 1073-1399 E1398S): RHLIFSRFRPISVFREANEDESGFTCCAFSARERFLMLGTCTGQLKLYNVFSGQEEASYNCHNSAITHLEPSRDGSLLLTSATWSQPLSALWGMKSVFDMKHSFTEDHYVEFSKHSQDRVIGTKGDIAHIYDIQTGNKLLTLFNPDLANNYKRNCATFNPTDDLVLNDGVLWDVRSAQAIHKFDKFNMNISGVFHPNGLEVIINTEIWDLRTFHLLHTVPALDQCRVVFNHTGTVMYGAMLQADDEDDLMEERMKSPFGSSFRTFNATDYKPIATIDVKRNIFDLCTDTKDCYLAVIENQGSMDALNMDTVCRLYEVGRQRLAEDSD
Procedure: Competition assay conditions consist of 20 µL total volume in white 384-well plates (Greiner), in 30 mM phosphate buffer pH 7.4 containing 140 mM NaCl, 0.01% Tween20, 1 mM TCEP and 1% final DMSO. Tested compounds at 14 different concentrations were pre-incubated at 22 °C for 30 min with a large excess of 10 µM human BTK (G389-S659) or 10 µM human BRD9-BD(130-250) in the cooperative assay or with buffer in standard binary assay. […] Samples were then incubated at 22 °C for 30 min before reading using a Tecan infinite M-1000 or PheraStar FSX (excitation 340 nm, emission 490 and 520 nm). DCAF1 protein was omitted in the negative control. IC50 fitting was carried out using an in-house developed software (Novartis Helios software application, unpublished, a publicly available alternative would be e.g., Graphpad Prism) using the methods described by Fomenko et al.[93] (regression algorithms for nonlinear dose-response curve fitting). Following normalization of activity values for the wells to % inhibition (% inhibition = [(high control-sample)/(high control-low control)] × 100). Data analysis could also be carried out using GraphPad Prism without prior normalization. The reported IC50 values are the average of at least two independent experiments.

[2] = biological target: T1, DCAF1(WDR); assay: SPR, surface immobilized DCAF1(WDR), binary compound binding; conditions: for Kd: binary, compound alone, spread in brackets, read-out: SPR KD
[3] = biological target: T2, BRD9 (Homo sapiens, UniProt Q9H8M2); assay: Rescue of DBr-1 mediated BRD9 degradation by co-treatment, BRD9-HiBiT HEK293 cells; type: cell-based; parameters: host or cells: HEK293/BRD9-HiBiT knock-in; clone and BRD9-HiBiT/CAS9/FF clone; conditions: (13) 1 µM, OICR8268 10 µM, BI-9564 10 µM
T2 sequence (Q9H8M2 1-597): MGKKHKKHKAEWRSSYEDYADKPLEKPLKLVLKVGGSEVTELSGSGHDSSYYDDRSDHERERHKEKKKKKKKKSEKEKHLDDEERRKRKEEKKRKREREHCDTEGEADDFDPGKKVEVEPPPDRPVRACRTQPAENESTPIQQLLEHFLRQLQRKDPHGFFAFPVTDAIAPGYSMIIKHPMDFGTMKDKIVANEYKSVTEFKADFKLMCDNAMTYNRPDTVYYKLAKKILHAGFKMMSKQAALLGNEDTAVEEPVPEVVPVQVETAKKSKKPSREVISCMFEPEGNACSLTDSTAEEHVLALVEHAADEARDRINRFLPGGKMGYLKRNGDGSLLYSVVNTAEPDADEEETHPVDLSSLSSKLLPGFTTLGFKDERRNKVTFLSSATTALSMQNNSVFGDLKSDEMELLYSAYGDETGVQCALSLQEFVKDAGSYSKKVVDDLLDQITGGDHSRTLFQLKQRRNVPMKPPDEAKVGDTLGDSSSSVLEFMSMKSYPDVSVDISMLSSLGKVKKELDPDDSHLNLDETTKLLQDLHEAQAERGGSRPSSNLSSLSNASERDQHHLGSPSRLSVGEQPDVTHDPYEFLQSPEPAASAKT
Procedure: Supplementary figure 4. Competition experiments with DBr-1 and DBr-1-N […]
a) BRD9-HiBiT signal detection of samples pretreated with either DMSO, 10µM OICR-8268, 1µM […]
Data represents average ± standard deviation from n=3 replicates. DC50 values and […]
maximal observed degradation are shown below. […]
b) Cell titer Glow assay of BRD9 HiBiT cells. Cells pretreated with either DMSO, 10µM OICR-8268, […]
Data represents average ± standard deviation from n=3 replicates.
Source data are provided as a Source Data file

[4] = biological target: BTK (Homo sapiens, UniProt Q06187); assay: BTK-GFP degradation by flow cytometry in TMD8 BTK-GFP/mCh cells; type: cell-based; parameters: performed with full-length BTK and endogenous DCAF1; expressed in transfected cells; host or cells: TMD8 cells, lentiviral, blasticidin-selected (TMD8 BTK-GFP/mCh); conditions: TMD8 BTK-GFP/mCh, 24 h; for DC50: read-out: DC50 BTK-Degradation
Sequence of BTK (Q06187 2-659 limits assumed): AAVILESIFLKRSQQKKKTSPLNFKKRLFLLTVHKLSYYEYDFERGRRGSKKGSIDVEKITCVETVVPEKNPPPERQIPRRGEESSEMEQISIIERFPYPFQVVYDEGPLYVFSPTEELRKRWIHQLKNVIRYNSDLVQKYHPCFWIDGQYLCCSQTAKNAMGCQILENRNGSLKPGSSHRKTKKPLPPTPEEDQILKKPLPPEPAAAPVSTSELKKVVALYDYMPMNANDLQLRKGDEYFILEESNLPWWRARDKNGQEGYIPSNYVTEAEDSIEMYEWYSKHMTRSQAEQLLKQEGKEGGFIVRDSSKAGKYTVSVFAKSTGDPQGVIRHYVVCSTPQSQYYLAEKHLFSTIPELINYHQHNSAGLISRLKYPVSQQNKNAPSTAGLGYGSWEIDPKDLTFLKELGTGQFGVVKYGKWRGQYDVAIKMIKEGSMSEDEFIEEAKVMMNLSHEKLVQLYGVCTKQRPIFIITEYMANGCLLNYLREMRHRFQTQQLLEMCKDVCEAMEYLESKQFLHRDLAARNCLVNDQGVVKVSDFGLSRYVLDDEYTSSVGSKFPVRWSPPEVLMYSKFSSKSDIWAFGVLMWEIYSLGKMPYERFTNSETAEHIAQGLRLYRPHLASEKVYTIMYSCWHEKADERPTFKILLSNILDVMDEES
Procedure: The bicistronic pLenti6 BTK-GFP-chysel-mCHERRY expression vector was cloned as described[92] using Gateway cloning with a pENTR-BTK plasmid lacking a STOP codon. TMD8 cells were then infected with lentiviral particles from this vector as described above and stably transfected cells were selected with blasticidin at a concentration of 10 μg/mL referred to as TMD8 BTK-GFP/mCh cells.
(§1) For flow cytometry measurements, 25,000 exponentially growing TMD8 BTK-GFP/mCh cells were plated in 100 μL of each well of a 96-well plate and grown for 24 h. Cells were then dosed with corresponding compounds and doses from 10 mM DMSO stock for 24 h, after which GFP and mCherry fluorescence was read with a Beckmann Coulter Cytoflex. For competition experiment, both compounds were added at the same time and dosed for 24 h. Cells were gated based on Forward & Side Scatter and selection for Single cells using SSC-A vs. SSC-H. Further, the population of viable cells was defined by the forward & side-scatter characteristics of DMSO-treated cells. To confirm cells outside of this population as non-viable, cells were plated and treated for 24 h, washed with PBS and stained for 30 min with two markers of early (Annexin-V) and late (LIVE/DEAD) apoptosis. Effects on viability were measured by the reduction of the percentage of cells included in this viable-population gate with increasing doses of compound tested. Degradation of BTK was calculated based on subtracting background (BG) fluorescence of parental TMD8 signal via (GFP-BG)/(mCherry-BG) of viable cells. Median ratios of three technical (different wells) replicates were used to calculate daily averages. Each compound dose–response was generated via three biological replicates (different days of experiment). Degradation curve parameters (DC50 & Abs. DC50 & max. Deg) were extracted using GraphPad Prism’s 4-parameter logistic curve fitting.

[5] = tested on: TMD8 BTK-GFP/mCh cells; assay: Viability by FSC/SSC gate (flow cytometry) in TMD8 BTK-GFP/mCh cells; type: cell-based, human; parameters: Max dose w/ Gating Viability >25%: unit: µM; conditions: TMD8 BTK-GFP/mCh, 24 h
Procedure: as §1, with “To confirm cells outside of this population as non-viable, cells were plated and treated for 24 h, washed with PBS and stained for 30 min with two markers of early (Annexin-V) and late (LIVE/DEAD) apoptosis.” left out
(§2) The viability window was determined by measuring the GI50 of viability based on the percentage of cells included in the viable gate and comparing it to the DC50 of degradation. The fold-change difference describing this window is [GI50 Viability / DC50 Degradation], where values above 1 indicate a positive (lower DC50 degradation than AC50 viability) window.

[6] = as above; type: cell-based, human; parameters: Max dose w/ Gating Viability >25%: unit: µM; conditions: human, TMD8 BTK-GFP/mCh cells, TMD8 BTK-GFP/mCh, 24 h
Procedure: as §1, with “To confirm cells outside of this population as non-viable, cells were plated and treated for 24 h, washed with PBS and stained for 30 min with two markers of early (Annexin-V) and late (LIVE/DEAD) apoptosis.” left out
as §2

[7] = biological target: T3, BRD7 (Homo sapiens, UniProt Q9NPI1); assay: BRD7-HiBiT protein abundance luminescence assay in HEK293 cells; conditions: read-out: rel. DC50 (BRD7), 2 h
T3 sequence (Q9NPI1 1-651): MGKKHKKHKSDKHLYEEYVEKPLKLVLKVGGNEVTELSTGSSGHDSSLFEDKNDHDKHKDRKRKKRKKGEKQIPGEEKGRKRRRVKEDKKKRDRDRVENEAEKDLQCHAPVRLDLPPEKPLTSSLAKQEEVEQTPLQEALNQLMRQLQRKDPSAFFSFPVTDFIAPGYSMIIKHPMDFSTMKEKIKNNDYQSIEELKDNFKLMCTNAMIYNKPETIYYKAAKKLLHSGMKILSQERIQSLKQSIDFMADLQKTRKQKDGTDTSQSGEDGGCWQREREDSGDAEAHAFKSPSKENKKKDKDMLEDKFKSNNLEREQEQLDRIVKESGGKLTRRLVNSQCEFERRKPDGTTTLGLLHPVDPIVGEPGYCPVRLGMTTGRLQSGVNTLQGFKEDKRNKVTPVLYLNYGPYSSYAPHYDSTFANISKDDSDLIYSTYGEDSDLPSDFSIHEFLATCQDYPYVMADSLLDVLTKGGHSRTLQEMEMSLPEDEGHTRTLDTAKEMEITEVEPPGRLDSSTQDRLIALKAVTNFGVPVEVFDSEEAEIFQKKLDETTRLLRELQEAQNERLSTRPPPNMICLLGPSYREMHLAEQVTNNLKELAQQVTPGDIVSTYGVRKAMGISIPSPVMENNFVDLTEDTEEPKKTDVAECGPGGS
Description: HEK293/BRD9-HiBiT pools (PROMEGA # CS3023120) and HEK293/BRD7-HiBiT pools (PROMEGA # CS3023124) were purchased from Promega. We performed clonal selection for HEK293/BRD9-HiBiT cell line using single-cell sorting and screening for HiBiT expression using Nano-Glo HiBiT Lytic Detection System (Promega # N3030). The HEK293/BRD9-HiBiT clone and HEK293/BRD7-HiBiT pool to perform standard HiBiT assays.

[8] = compound alone, spread in brackets, read-out: TR-FRET Q. IC50

Q: For `C#CCOCC(=O)N1CCN(c2ccc3c(NCCN)nc(C4(c5ccc(Cl)cc5)CCCCC4)nc3c2)CC1` [compound 16], which IC50 [1, 8] is on record?
A: Its IC50 is 10 nM.

Q: And the Kd [2]?
A: The Kd was 50 nM.

Q: With `NC(=O)C[C@H](NC(=O)c1c[nH]nc1-c1ccc(Cl)cc1F)c1ccc(F)c(Cl)c1` [OICR-8268] as the compound, how does the “effect of co-treatment on DBr-1 mediated BRD9 degradation” value [3] read?
A: Its value is “did not affect the degradation efficacy of DBr-1”.

Q: Which results are given for `Cc1c(NC(=O)N2CC(O)(CC(C)(C)C)C2)cc(F)cc1-c1ncnc2[nH]c(-c3cnn(CC(=O)N4CCC5(CCNCC5)CC4)c3)cc12` [compound 19]?
A: max. BTK degradation (%) [4]: 0%; DC50 [4]: > 25000 nM; Max dose w/ Gating Viability >25% [5]: 25; GI50 at 24 h ([6]; read-out: GI50): > 25000 nM

Q: Which results are given for `COc1cc(-c2cn(C)c(=O)c3cnccc23)c(OC)cc1CN1CCC(OCCCCCC(=O)N2CCN(c3ccc4c(NCCN(C)C)nc(C5(c6ccc(Cl)cc6)CCCCC5)nc4c3)CC2)CC1` [DBr-1-N]?
A: relative reduction in affinity compared to DBr-1, TR-FRET [1]: 41 fold; IC50 ([1]; read-out: IC50 in TR-FRET assays (response to reviewers)): 812 nM; relative reduction in affinity compared to DBr-1, SPR [2]: 27 fold

Q: Which DC50 [4] does the source give for `Cc1c(NC(=O)c2ccc(C(C)(C)O)cc2F)cc(F)cc1-c1ncnc2[nH]c(-c3ccc(CN4CCC5(CCNCC5)CC4)cc3)cc12` [compound 18, reference compound] here?
A: The DC50 was 7890 nM.

Q: What about the “Max dose w/ Gating Viability >25%” value [5] of the same compound?
A: The value was 25.

Q: And the GI50 at 24 h ([6]; read-out: Abs GI50)?
A: The GI50 at 24 h was 9540 nM.

Q: And the GI50 at 24 h ([6]; read-out: GI50)?
A: The GI50 at 24 h was 7560 nM.

Q: For `COc1cc(-c2cn(C)c(=O)c3cnccc23)c(OC)cc1CN(C)CC(=O)NCCOCCOCCNc1cccc2c1C(=O)N(C1CCC(=O)NC1=O)C2=O` (centres unmarked) [dBRD9], which DC50 [7] is on record?
A: Its DC50 is > 10000 nM.

Q: With `CC(=O)NCCOCCOCCOCCOCCOCCOCCC(=O)N1CCN(c2ccc3c(NCCN)nc(C4(c5ccc(Cl)cc5)CCCC4)nc3c2)CC1` [compound 15] as the compound, how does the IC50 [1, 8] read?
A: Its IC50 is 20 nM.

Q: What about the Kd [2] of the same compound?
A: Its Kd is 20 nM.
